Experimental data from US11000033B2, “Ketone or oxime compound, and herbicide” (NISSAN CHEMICAL CORPORATION, priority 2014, dated 2021).

Experiments:
wheat = test: Test Example 4: effect on crop by soil treatment (symbol e); type: in vivo; details: for e: wheat, effect on crop grade / e (wheat) effect on crop grade: application herbicide amount 320 g/ha; for e: wheat, effect grade on crop: 320 g/ha
How it was run: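 Steps: fill box with sterilized diluvial soil; sow seed spot-like; cover with ~1.5 cm soil; grow in greenhouse (25° C. to 30° C.).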

Stellaria media = test: Test Example 4: herbicidal effect by soil treatment (symbol P); type: in vivo
How it was run: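 Seeds were sown in sterilized diluvial soil, covered with about 1.5 cm of soil, and the soil surface was sprayed with a water-diluted emulsion of the compound at a predetermined rate. Plants grew in a greenhouse at 25° C. to 30° C.; effects were scored visually 3 weeks after application.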

[1] = application herbicide amount 320 g/ha

SMILES: CON=C(C)CC1CC(O)=C(c2c(C)cc(C)cc2Br)C1=O (centres unmarked) [6-038]
- e: wheat, effect on crop grade (wheat): 1 (Herbicidal ratio of 5% or higher and lower than 20%)
- P: Stellaria media, herbicidal effect grade (Stellaria media; [1]): 0 (Herbicidal ratio of 5% or lower (almost no effect))

SMILES: Cc1cc(C)c(C2=C(O)CC(CC(=O)C3CC3)C2=O)c(C)c1 (centres unmarked) [2-017]
- e: wheat, effect on crop grade (wheat): 0 (Herbicidal ratio of 5% or lower (almost no effect))
- P: Stellaria media, herbicidal effect grade (Stellaria media; [1]): 0 (Herbicidal ratio of 5% or lower (almost no effect))

SMILES: CC(=O)C(C(C)=O)C1CC(O)=C(c2c(C)cc(C)cc2C)C1=O (centres unmarked) [2-002]
- e: wheat, effect grade on crop (wheat): 0 (Herbicidal ratio of 5% or lower (almost no effect))
- P: Stellaria media, herbicidal effect grade (Stellaria media; 320 g/ha): 0 (Herbicidal ratio of 5% or lower (almost no effect))

SMILES: CCOC(=O)C(C(=O)Cc1ccccc1)C1CC(O)=C(c2c(C)cc(C)cc2C)C1=O (centres unmarked) [2-011]
- e: wheat, effect on crop grade (wheat): 0 (Herbicidal ratio of 5% or lower (almost no effect))
- P: Stellaria media, herbicidal effect grade (Stellaria media; [1]): 0 (Herbicidal ratio of 5% or lower (almost no effect))

SMILES: CON=C(C)CC1CC(O)=C(c2c(C)cc(C)cc2OC)C1=O (centres unmarked) [6-037, 3-hydroxy-2-(2-methoxy-4,6-dimethylphenyl)-5-{2-(methoxyimino)propyl}cyclopent-2-enone]
- e: wheat, effect on crop grade (wheat): 5 (Herbicidal ratio of 90% or more (almost completely withered))
- P: Stellaria media, herbicidal effect grade (Stellaria media; [1]): 0 (Herbicidal ratio of 5% or lower (almost no effect))

SMILES: CON=C(C)CC1CC(OCC#N)=C(c2c(C)cc(C)cc2C)C1=O (centres unmarked) [1-013]
- e (wheat) effect on crop grade (wheat): 0 (Herbicidal ratio of 5% or lower (almost no effect))
- P (Stellaria media) herbicidal effect grade (Stellaria media; [1]): 0 (Herbicidal ratio of 5% or lower (almost no effect))

SMILES: CCOC(=O)C(CC)(C(C)=O)C1CC(O)=C(c2c(C)cc(C)cc2C)C1=O (centres unmarked) [2-012]
- e: wheat, effect on crop grade (wheat): 0 (Herbicidal ratio of 5% or lower (almost no effect))
- P: Stellaria media, herbicidal effect grade (Stellaria media; [1]): 0 (Herbicidal ratio of 5% or lower (almost no effect))

SMILES: CCOC(=O)C(C(=O)C(C)C)C1CC(O)=C(c2c(C)cc(C)cc2C)C1=O (centres unmarked) [2-009]
- e: wheat, effect on crop grade (wheat): 0 (Herbicidal ratio of 5% or lower (almost no effect))
- P: Stellaria media, herbicidal effect grade (Stellaria media; [1]): 0 (Herbicidal ratio of 5% or lower (almost no effect))

SMILES: Cc1cc(C)c(C2=C(O)CC(CC(=O)C3CCCCC3)C2=O)c(C)c1 (centres unmarked) [2-030]
- e: wheat, effect on crop grade (wheat): 0 (Herbicidal ratio of 5% or lower (almost no effect))
- P: Stellaria media, herbicidal effect grade (Stellaria media; [1]): 0 (Herbicidal ratio of 5% or lower (almost no effect))

SMILES: Cc1cc(C)c(C2=C(O)CC(CC(=O)Cc3ccccc3)C2=O)c(C)c1 (centres unmarked) [2-015]
- e: wheat, effect on crop grade (wheat): 0 (Herbicidal ratio of 5% or lower (almost no effect))
- P: Stellaria media, herbicidal effect grade (Stellaria media; [1]): 0 (Herbicidal ratio of 5% or lower (almost no effect))

SMILES: CON=C(C)CC1CC(O)=C(c2c(C)cc(-n3cc(Cl)cn3)cc2C)C1=O (mixture of isomers) [6-004]
- e: wheat, effect on crop grade (wheat): 0 (Herbicidal ratio of 5% or lower (almost no effect))
- P: Stellaria media, herbicidal effect grade (Stellaria media; [1]): 0 (Herbicidal ratio of 5% or lower (almost no effect))

SMILES: CCOC(=O)C(C(=O)c1ccccc1)C1CC(O)=C(c2c(C)cc(C)cc2C)C1=O (centres unmarked) [2-008]
- e: wheat, effect on crop grade (wheat): 0 (Herbicidal ratio of 5% or lower (almost no effect))
- P: Stellaria media, herbicidal effect grade (Stellaria media; [1]): 0 (Herbicidal ratio of 5% or lower (almost no effect))

SMILES: CON=C(C)CC1CC(OC(=O)c2c(Cl)nn(C)c2Cl)=C(c2c(C)cc(C)cc2C)C1=O (centres unmarked) [1-160]
- e: wheat, effect grade on crop (wheat): 2 (Herbicidal ratio of 20% or higher and lower than 40%)
- P: Stellaria media, herbicidal effect grade (Stellaria media; 320 g/ha): 0 (Herbicidal ratio of 5% or lower (almost no effect))

SMILES: CON=C(C)CC1CC(OC(=O)N2CCCCC2)=C(c2c(C)cc(C)cc2C)C1=O (centres unmarked) [1-151]
- e: wheat, effect grade on crop (wheat): 0 (Herbicidal ratio of 5% or lower (almost no effect))
- P: Stellaria media, herbicidal effect grade (Stellaria media; 320 g/ha): 0 (Herbicidal ratio of 5% or lower (almost no effect))

SMILES: CON=C(C)CC1CC(OC(=O)OCc2ccccc2)=C(c2c(C)cc(C)cc2C)C1=O (centres unmarked) [1-145]
- e: wheat, effect grade on crop (wheat): 5 (Herbicidal ratio of 90% or more (almost completely withered))
- P: Stellaria media, herbicidal effect grade (Stellaria media; 320 g/ha): 3 (Herbicidal ratio of 40% or higher and lower than 70%)

SMILES: CON=C(C)CC1CC(OC(=O)N2CCCC2)=C(c2c(C)cc(C)cc2C)C1=O (centres unmarked) [1-150]
- e: wheat, effect grade on crop (wheat): 1 (Herbicidal ratio of 5% or higher and lower than 20%)
- P: Stellaria media, herbicidal effect grade (Stellaria media; 320 g/ha): 0 (Herbicidal ratio of 5% or lower (almost no effect))

SMILES: Cc1cc(C)c(C2=C(O)CC(CC(=O)C3CCCC3)C2=O)c(C)c1 (centres unmarked) [2-028]
- e: wheat, effect on crop grade (wheat): 0 (Herbicidal ratio of 5% or lower (almost no effect))
- P: Stellaria media, herbicidal effect grade (Stellaria media; [1]): 0 (Herbicidal ratio of 5% or lower (almost no effect))

SMILES: CON=C(C)CC1CC(OS(=O)(=O)c2ccc(C)cc2)=C(c2c(C)cc(C)cc2C)C1=O (centres unmarked) [1-161]
- e: wheat, effect grade on crop (wheat): 3 (Herbicidal ratio of 40% or higher and lower than 70%)
- P: Stellaria media, herbicidal effect grade (Stellaria media; 320 g/ha): 0 (Herbicidal ratio of 5% or lower (almost no effect))

SMILES: CON=C(C)CC1CC(OC(=O)c2ccccc2OC(F)(F)F)=C(c2c(C)cc(C)cc2C)C1=O (centres unmarked) [1-155]
- e: wheat, effect grade on crop (wheat): 3 (Herbicidal ratio of 40% or higher and lower than 70%)
- P: Stellaria media, herbicidal effect grade (Stellaria media; 320 g/ha): 0 (Herbicidal ratio of 5% or lower (almost no effect))

SMILES: C=CCN(CC=C)C(=O)OC1=C(c2c(C)cc(C)cc2C)C(=O)C(CC(C)=NOC)C1 (centres unmarked) [1-153]
- e: wheat, effect grade on crop (wheat): 2 (Herbicidal ratio of 20% or higher and lower than 40%)
- P: Stellaria media, herbicidal effect grade (Stellaria media; 320 g/ha): 0 (Herbicidal ratio of 5% or lower (almost no effect))

SMILES: CON=C(C)CC1CC(OC(=O)c2ccccc2)=C(c2c(C)cc(C)cc2C)C1=O (centres unmarked) [1-010]
- e (wheat) effect on crop grade (wheat): 4 (Herbicidal ratio of 70% or higher and lower than 90%)
- P (Stellaria media) herbicidal effect grade (Stellaria media; [1]): 4 (Herbicidal ratio of 70% or higher and lower than 90%)

SMILES: C=Cc1cc(C)c(C2=C(O)CC(CC(C)=NOC)C2=O)c(C)c1 (mixture of isomers) [6-031]
- e: wheat, effect on crop grade (wheat): 0 (Herbicidal ratio of 5% or lower (almost no effect))
- P: Stellaria media, herbicidal effect grade (Stellaria media; [1]): 0 (Herbicidal ratio of 5% or lower (almost no effect))

SMILES: CON=C(C)CC1CC(O)=C(c2c(C)cc(C#CCO)cc2C)C1=O (mixture of isomers) [6-025]
- e: wheat, effect on crop grade (wheat): 0 (Herbicidal ratio of 5% or lower (almost no effect))
- P: Stellaria media, herbicidal effect grade (Stellaria media; [1]): 0 (Herbicidal ratio of 5% or lower (almost no effect))

SMILES: CON=C(C)CC1CC(OC(=O)c2ccc(S(C)(=O)=O)c(C(=O)OC)c2Cl)=C(c2c(C)cc(C)cc2C)C1=O (centres unmarked) [1-162]
- e: wheat, effect grade on crop (wheat): 4 (Herbicidal ratio of 70% or higher and lower than 90%)
- P: Stellaria media, herbicidal effect grade (Stellaria media; 320 g/ha): 0 (Herbicidal ratio of 5% or lower (almost no effect))

SMILES: CON=C(C)CC1CC(O)=C(c2c(C)cc(C(C)=O)cc2C)C1=O (centres unmarked) [6-026]
- e: wheat, effect on crop grade (wheat): 0 (Herbicidal ratio of 5% or lower (almost no effect))
- P: Stellaria media, herbicidal effect grade (Stellaria media; [1]): 0 (Herbicidal ratio of 5% or lower (almost no effect))

SMILES: CC#Cc1cc(C)c(C2=C(O)CC(CC(C)=NOC)C2=O)c(CC)c1 (mixture of isomers) [6-006]
- e: wheat, effect on crop grade (wheat): 5 (Herbicidal ratio of 90% or more (almost completely withered))
- P: Stellaria media, herbicidal effect grade (Stellaria media; [1]): 0 (Herbicidal ratio of 5% or lower (almost no effect))

SMILES: C=CC(=O)CC1CC(O)=C(c2c(C)cc(C)cc2C)C1=O (centres unmarked) [2-031]
- e: wheat, effect on crop grade (wheat): 3 (Herbicidal ratio of 40% or higher and lower than 70%)
- P: Stellaria media, herbicidal effect grade (Stellaria media; [1]): 0 (Herbicidal ratio of 5% or lower (almost no effect))

SMILES: CON=C(C)CC1CC(OC(=O)C(C)Oc2ccc(Oc3ccc(Cl)cc3Cl)cc2)=C(c2c(C)cc(C)cc2C)C1=O (centres unmarked) [1-163]
- e: wheat, effect grade on crop (wheat): 0 (Herbicidal ratio of 5% or lower (almost no effect))
- P: Stellaria media, herbicidal effect grade (Stellaria media; 320 g/ha): 0 (Herbicidal ratio of 5% or lower (almost no effect))

SMILES: CON=C(C)CC1CC(OS(=O)(=O)C2CC2)=C(c2c(C)cc(C)cc2C)C1=O (centres unmarked) [1-143]
- e: wheat, effect grade on crop (wheat): 2 (Herbicidal ratio of 20% or higher and lower than 40%)
- P: Stellaria media, herbicidal effect grade (Stellaria media; 320 g/ha): 0 (Herbicidal ratio of 5% or lower (almost no effect))

SMILES: CCc1cc(C#C[Si](C)(C)C)cc(C)c1C1=C(O)CC(CC(C)=NOC)C1=O (mixture of isomers) [6-008]
- e: wheat, effect on crop grade (wheat): 4 (Herbicidal ratio of 70% or higher and lower than 90%)
- P: Stellaria media, herbicidal effect grade (Stellaria media; [1]): 0 (Herbicidal ratio of 5% or lower (almost no effect))

SMILES: CON=C(C)CC1CC(O)=C(c2c(C)cc(-c3cccc(Cl)c3)cc2C)C1=O (mixture of isomers) [6-034]
- e: wheat, effect on crop grade (wheat): 0 (Herbicidal ratio of 5% or lower (almost no effect))
- P: Stellaria media, herbicidal effect grade (Stellaria media; [1]): 0 (Herbicidal ratio of 5% or lower (almost no effect))

SMILES: COC(=O)C(C(C)=O)C1CC(O)=C(c2c(C)cc(C)cc2C)C1=O (centres unmarked) [2-003]
- e: wheat, effect grade on crop (wheat): 0 (Herbicidal ratio of 5% or lower (almost no effect))
- P: Stellaria media, herbicidal effect grade (Stellaria media; 320 g/ha): 0 (Herbicidal ratio of 5% or lower (almost no effect))

SMILES: Cc1cc(C)c(C2=C(O)CC(CC(=O)c3ccc(F)cc3)C2=O)c(C)c1 (centres unmarked) [2-032]
- e: wheat, effect on crop grade (wheat): 0 (Herbicidal ratio of 5% or lower (almost no effect))
- P: Stellaria media, herbicidal effect grade (Stellaria media; [1]): 0 (Herbicidal ratio of 5% or lower (almost no effect))

SMILES: CCOC(=O)C(C(=O)CC1CC1)C1CC(O)=C(c2c(C)cc(C)cc2C)C1=O (centres unmarked) [2-025]
- e: wheat, effect on crop grade (wheat): 0 (Herbicidal ratio of 5% or lower (almost no effect))
- P: Stellaria media, herbicidal effect grade (Stellaria media; [1]): 0 (Herbicidal ratio of 5% or lower (almost no effect))
